Laboratory results: ChEMBL document CHEMBL1144883, “Design, synthesis, and SAR of potent and selective dipeptide-derived inhibitors for dipeptidyl peptidases” (J Med Chem, 2003)

How the values were obtained:
[1] = biological target: T1, Dipeptidyl peptidase 2 (Homo sapiens, UniProt Q9UHL4)
[2] = biological target: T2, Dipeptidyl peptidase 4 (Homo sapiens, UniProt P27487)
[3] = biological target: T1, Dipeptidyl peptidase 2; test: Inhibitory activity of compound against Dipeptidylpeptidase II (DPP II)
[4] = biological target: T2, Dipeptidyl peptidase 4; remark: listed apart in the source
[5] = biological target: T1, Dipeptidyl peptidase 2; remark: listed apart in the source

T2 sequence (P27487 whole entry): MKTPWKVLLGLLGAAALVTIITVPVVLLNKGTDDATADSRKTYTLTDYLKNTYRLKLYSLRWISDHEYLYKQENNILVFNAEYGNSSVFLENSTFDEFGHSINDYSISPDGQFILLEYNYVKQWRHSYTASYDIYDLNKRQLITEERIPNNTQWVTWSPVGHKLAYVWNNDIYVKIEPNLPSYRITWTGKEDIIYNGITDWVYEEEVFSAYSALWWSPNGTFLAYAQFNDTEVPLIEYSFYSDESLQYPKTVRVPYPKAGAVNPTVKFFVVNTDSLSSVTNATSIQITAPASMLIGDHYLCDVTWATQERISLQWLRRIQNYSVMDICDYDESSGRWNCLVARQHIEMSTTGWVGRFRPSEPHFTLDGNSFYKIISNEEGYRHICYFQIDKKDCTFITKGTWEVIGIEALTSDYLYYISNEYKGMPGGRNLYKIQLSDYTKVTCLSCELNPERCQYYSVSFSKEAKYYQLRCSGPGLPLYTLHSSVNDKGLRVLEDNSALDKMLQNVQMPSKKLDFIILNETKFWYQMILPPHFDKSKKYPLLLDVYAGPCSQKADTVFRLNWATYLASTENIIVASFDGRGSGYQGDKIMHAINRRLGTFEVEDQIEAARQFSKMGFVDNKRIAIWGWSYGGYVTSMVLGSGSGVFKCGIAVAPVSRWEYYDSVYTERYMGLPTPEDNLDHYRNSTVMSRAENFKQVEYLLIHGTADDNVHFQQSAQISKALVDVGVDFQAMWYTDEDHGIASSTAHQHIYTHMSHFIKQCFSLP

Compound	IC50 [1]	IC50 [2]	IC50 [3]	IC50 [4]	IC50 [5]
CCC(C)C(N)C(=O)N(CC)CC (stereo not drawn)	> 500 µM	> 500 µM			
NCC[C@@H](N)C(=O)N1CCCCC1	130 µM	> 1000 µM			
CCC(C)C(N)C(=O)N1CCC(O)C1 (stereo not drawn)	299 µM	93 µM			
CCC(C)C(N)C(=O)N(C)C (stereo not drawn)	> 1000 µM	360 µM			
NC(C(=O)N1CCCCC1)C1CCCCC1 (stereo not drawn)	9.9 µM	217 µM			
CCC(C)C(N)C(=O)N1CCC(OC(=O)c2ccccc2)C1 (stereo not drawn)	158 µM	> 500 µM			
CCC(C)C(N)C(=O)N1CCCCCC1 (stereo not drawn)	228 µM	374 µM			
CCC(C)C(N)C(=O)NC1CCCC1 (stereo not drawn)	500 µM	> 1000 µM			
CCC(C)C(N)C(=O)N1CCC(F)C1 (stereo not drawn)	111 µM	3.5 µM			
CCC(C)C(N)C(=O)N1CC=CC1 (stereo not drawn)	288 µM				
CCCN(C)C(=O)C(N)C(C)CC (stereo not drawn)	213 µM	377 µM			
O=C(C1CCCS1)N1CCCC1 (stereo not drawn)	> 500 µM	> 500 µM			
O=C(CNC1CCCC1)NC(c1ccccc1)P(=O)(Oc1ccccc1)Oc1ccccc1 (stereo not drawn)		> 125 µM			
CCC(C)C(N)C(=O)N1CCC(N=[N+]=[N-])C1 (stereo not drawn)	43 µM	107 µM			
O=C([C@@H]1CCCN1)N1CCCC1	> 500 µM				
CCC(C)C(N)C(=O)N(C)CC (stereo not drawn)	> 500 µM	167 µM			
CCC(C)C(N)C(=O)N1CC=CCC1 (stereo not drawn)	52 µM	52 µM			
CCC(C)C(N)C(=O)N1CCCCC1 (stereo not drawn)	59 µM				
NCC(=O)N1CCCC1	> 1000 µM				
NCCC(N)C(=O)N1CCCCC1 (stereo in doubt; 9.7)	0.13 µM	> 1000 µM			
NCCC(N)C(=O)N1CCCCC1 (stereo in doubt; 9.9)	1.15 µM	500 µM			
NCCC(N)C(=O)N1CCCCC1 (stereo in doubt; 9.10)	191 µM	> 1000 µM			

Next, values leading:

IC50 [1]	IC50 [2]	IC50 [3]	IC50 [4]	IC50 [5]	Compound
48 µM	500 µM				NCCCCC(N)C(=O)N1CCC(O)C1 (stereo not drawn)
4.9 µM					[N-]=[N+]=NC1CCN(C(=O)C(N)CCCCN)C1 (stereo not drawn)
1.5 µM	51 µM				N#CC1CCCCN1C(=O)C(N)CCCCN (stereo not drawn)
78.1 µM	> 1000 µM				NCCCCC(N)C(=O)N1CCC(OC(=O)c2ccccc2)C1 (stereo not drawn)
0.63 µM	18.1 µM				N=C(N)NCCCC(N)C(=O)N1CCCCC1 (stereo not drawn)
57.1 µM	229 µM				CCCC(N)C(=O)N1CCCCC1 (stereo not drawn)
0.49 µM	> 1000 µM				NCCCC[C@@H](N)C(=S)N1CCCCC1
	151 µM	0.038 µM			N#C[C@@H]1CCCCN1C(=O)C(N)CCN (stereo partly drawn)
62 µM	67 µM				NC(CO)C(=O)N1CCCCC1 (stereo not drawn)
32.4 µM	250 µM				CCCCC(N)C(=O)N1CCCCC1 (stereo not drawn)
1.84 µM	> 1000 µM				NCC(N)C(=O)N1CCCCC1 (stereo not drawn)
88.7 µM	250 µM				CCC(N)C(=O)N1CCCCC1 (stereo not drawn)
29.3 µM	> 1000 µM				NCCC(N)C(=O)N1CCNCC1 (stereo not drawn)
0.22 µM	> 1000 µM				NCC[C@H](N)C(=S)N1CCCCC1
0.75 µM	81 µM				NCCCC(N)C(=O)N1CCSC1 (stereo not drawn)
3 µM	318 µM		318 µM	3 µM	NCCCCC(N)C(=O)N1CCSC1 (stereo not drawn)
51.9 µM	> 1000 µM				NCCCCC(N)C(=O)N1CCCCCC1 (stereo not drawn)
0.51 µM	> 1000 µM				NCCC(N)C(=O)N1CCOCC1 (stereo not drawn)
730 µM	50.4 µM				CCC(C)C(N)C(=O)N1CCC1 (stereo not drawn)
159 µM	500 µM				NCCCCC(N)C(=O)N1CCC1 (stereo not drawn)
0.2 µM	> 1000 µM				NCCC[C@H](N)C(=S)N1CCCCC1
0.14 µM	289 µM				NCCC(N)C(=O)N1CCSC1 (stereo not drawn)
10.9 µM	> 500 µM				NCCCCC(N)C(=O)N1CC=CCC1 (stereo not drawn)
1 µM	0.32 µM				N#C[C@@H]1CCCN1C(=O)[C@@H](N)CCCCN
> 500 µM					N[C@@H](CC(=O)O)C(=O)N1CCCC1
1.6 µM	247 µM				NCCCC[C@H](N)C(=O)N1CCCCC1 (stereo in doubt; 8.4)
2.1 µM	135 µM				NCCCC[C@H](N)C(=O)N1CCCCC1 (stereo in doubt; 9.5)
